Data: PubChem BioAssay (NCI)
Values joined by “and” are separate entries in the source; they are usually repeats but may differ in a detail not shown here. Identical values can stand only once.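 The compound was tested at five concentrations on cells cultured in 96-well plates, with a 48-hour exposure period. GI50 marks 50% less growth. TGI denotes the concentration required for complete inhibition of growth.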

Test system: MDA-MB-468 breast
Test: NCI-60 cell line screen, 48 h

Row | SMILES | GI50 | TGI
1 | CCN(CC)CCNC(=O)c1c(C)[nH]c(/C=C2\C(=O)Nc3ccc(F)cc32)c1C | > 10 µM and 3.25 µM and 1.41 µM | > 10 µM and 6.21 µM and 4.31 µM
2 | NC(=O)C1(N2CCCCC2)CCN(CCCC(=O)c2ccc(F)cc2)CC1 | 0.0204 µM | 0.0682 µM
3 | c1ccc(Cn2cnc3ccc(-c4nc(-c5ccc6c(c5)ncn6C5CCCCC5)cn5ccnc45)cc32)cc1 | 1.92 µM | 4.43 µM
4 | COc1cc2c(cc1-c1c(C)noc1C)cc(C)c(=O)n2Cc1ccccn1 | 0.859 µM | 4.8 µM
5 | COc1ccc(/C=C2/CCc3cc4ccc(OC)cc4[o+]c32)c(O)c1 | 14 µM | 34.9 µM
6 | Cc1ncc(C(=O)Nc2ccc(CN3CCN(C)CC3)c(C(F)(F)F)c2)cc1C#Cc1cnc(NC2CC2)c2ncccc12 | 3.92 µM | 9.32 µM
7 | COc1ccc2cc(-c3ccc(-c4ccc(C(=N)N)s4)s3)ccc2c1 | 2.34 µM | 4.44 µM
8 | Cc1cc(Nc2nc(SCc3ccc(C(=O)Nc4ccc(F)cc4N)cc3)nn3cccc23)n[nH]1 | 0.432 µM | 36 µM
9 | O=C1C(Cl)=C(Nc2ccccc2)C(=O)c2ccccc21 | 1.52 µM | 3.1 µM
10 | COc1ccc(-c2nnc(N3CCN(C(=O)CN4CCN(c5ccc(OC)cc5)CC4)CC3)nc2-c2ccc(OC)cc2)cc1 | 4.23 µM | 21.7 µM
11 | NC(=O)c1cccc(Nc2nccc(Nc3cccc(F)c3)n2)c1 | 3.88 µM | 12.8 µM
12 | O=C(/C=C/c1ccccc1)CC(c1ccccc1)N1CCOCC1 (configuration not stated) | 2.05 µM | 5.56 µM
13 | C[C@H](Cn1ncnn1)Nc1ncc2cc(Oc3ccc(F)cc3F)c(=O)n(C)c2n1 | > 25 µM | > 25 µM
14 | CCC(=C(c1ccc(OCCCN(C)C)cc1)c1ccc(OCCCN(C)C)cc1)c1ccc(Cl)cc1 | 1.15 µM | 3.74 µM
15 | CCCCCCCCCCCCCCCCCCNC(=O)[C@H]1CSC(c2cccs2)N1 (some centres not stated) | 9.32 µM | > 50 µM
16 | CC1(C)N=C(N)N=C(N)N1c1ccc(OCC(=O)Nc2ccccc2)c(Cl)c1 | 3.05 µM | > 100 µM
17 | CC1CCCc2c1nn(C(=O)/C=C(\N)c1ccccc1)c2N (configuration not stated) | 11.9 µM | > 100 µM
18 | CCCCCCCCCCN=C(c1ccc(N(C)C)cc1)c1ccc(N(C)C)cc1 | 0.383 µM | 36.7 µM
19 | O=S(=O)(CCOCc1ccc(-c2ccc3ncnc(Nc4ccc(OCc5cccc(F)c5)c(Cl)c4)c3c2)o1)c1ccccc1 | 0.105 µM | 2.33 µM
20 | CC(=O)N[C@H](C(=O)N[C@@H](CCCNC(=N)N)C(=O)N[C@@H](CCCCN)C(=O)N[C@@H](CCCNC(=N)N)C(=O)N[C@]1(C)CCCCCC/C=C\CCC[C@@](C)(C(=O)N[C@@H](CCCNC(=N)N)C(=O)N[C@@H](CCC(=O)O)C(=O)N[C@@H](CC(C)C)C(=O)N[C@H](C(=O)N[C@@H](CCC(=O)O)C(N)=O)C(C)C)NC(=O)[C@H](CCC(N)=O)NC(=O)[C@H](CC(C)C)NC(=O)[C@H](CC(C)C)NC(=O)[C@H](CCCNC(=N)N)NC(=O)[C@H](CCCNC(=N)N)NC(=O)[C@H](CC(C)C)NC1=O)C(C)C | 3.82 µM | 32.6 µM
21 | CNC(=O)c1cc2c(Oc3ccc(NC(=O)C4(C(=O)Nc5ccc(F)cc5)CC4)cc3)ccnc2cc1OC | 2.88 µM | 13.5 µM
